# Tested on: 743489-274-T-PDC complex spheroid growth
# Test: Anticancer human tumor 743489-274-T-PDC patient-derived renal cell carcinoma cell line growth inhibition [AhR]
# Conditions: for IC50: curve of first compound; for viability, T/C: stronger effect = lower value
# How it was run: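 Complex tumor spheroids co-cultured with HUVEC and human MSC stroma; AhR antagonists tested in combination with standard-of-care and investigational agents. Top concentration at or near clinical Cmax (else 10 microM), half-log dilutions; growth expressed as percent test/control.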
# [1] = second compound 0.1 µM, first compound 0.0316 µM
# [2] = second compound 0.1 µM, first compound 0.1 µM
# [3] = second compound 0.1 µM, first compound 0.316 µM
# [4] = second compound 0.1 µM, first compound 1 µM
# [5] = second compound 0.1 µM, first compound 3.16 µM
# [6] = second compound 0.1 µM, first compound 10 µM
# [7] = second compound 0.316 µM, first compound 0.0316 µM
# [8] = second compound 0.316 µM, first compound 0.1 µM
# [9] = second compound 0.316 µM, first compound 0.316 µM
# [10] = second compound 0.316 µM, first compound 1 µM
# [11] = second compound 0.316 µM, first compound 3.16 µM
# [12] = second compound 0.316 µM, first compound 10 µM
# [13] = second compound 1 µM, first compound 0.0316 µM
# [14] = second compound 1 µM, first compound 0.1 µM
# [15] = second compound 1 µM, first compound 0.316 µM
# [16] = second compound 1 µM, first compound 1 µM
# [17] = second compound 1 µM, first compound 3.16 µM
# [18] = second compound 1 µM, first compound 10 µM
# [19] = second compound 3.16 µM, first compound 0.0316 µM
# [20] = second compound 3.16 µM, first compound 0.1 µM
# [21] = second compound 3.16 µM, first compound 0.316 µM
# [22] = second compound 3.16 µM, first compound 1 µM
# [23] = second compound 3.16 µM, first compound 3.16 µM
# [24] = second compound 3.16 µM, first compound 10 µM
# [25] = second compound 10 µM, first compound 0.0316 µM
# [26] = second compound 10 µM, first compound 0.1 µM
# [27] = second compound 10 µM, first compound 0.316 µM
# [28] = second compound 10 µM, first compound 1 µM
# [29] = second compound 10 µM, first compound 3.16 µM
# [30] = second compound 10 µM, first compound 10 µM
# 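Note: spheroids exposed to agents for 7 days before readout.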
# 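Throughout, for viability, T/C: 100% = DMSO vehicle control wells.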
Structure (SMILES),IC50 (second compound 0.1 µM),IC50 (second compound 0.316 µM),IC50 (second compound 1 µM),IC50 (second compound 3.16 µM),IC50 (second compound 10 µM),"viability, T/C [1]","viability, T/C [2]","viability, T/C [3]","viability, T/C [4]","viability, T/C [5]","viability, T/C [6]","viability, T/C [7]","viability, T/C [8]","viability, T/C [9]","viability, T/C [10]","viability, T/C [11]","viability, T/C [12]","viability, T/C [13]","viability, T/C [14]","viability, T/C [15]",also measured
Nc1ccccc1NC(=O)c1ccc(CNC(=O)OCc2cccnc2)cc1 + Cc1ccccc1N=Nc1ccc(NC(=O)c2ccnn2C)c(C)c1,4.62 µM,2.64 µM,3.67 µM,2.63 µM,2.26 µM,101%,96.6%,95.9%,80.2%,63%,25.4%,99.9%,99.7%,84%,79.7%,42.7%,23.8%,89.8%,95%,88.2%,"viability, T/C [16]: 74.3%; viability, T/C [17]: 54.7%; viability, T/C [18]: 24.5%; viability, T/C [19]: 93.3%; viability, T/C [20]: 98%; viability, T/C [21]: 88.3%; viability, T/C [22]: 70%; viability, T/C [23]: 47%; viability, T/C [24]: 28.5%; viability, T/C [25]: 86.9%; viability, T/C [26]: 95.9%; viability, T/C [27]: 88.4%; viability, T/C [28]: 66.2%; viability, T/C [29]: 44.4%; viability, T/C [30]: 28.6%"
O=C(C=Cc1cccc(S(=O)(=O)Nc2ccccc2)c1)NO + Cc1ccccc1N=Nc1ccc(NC(=O)c2ccnn2C)c(C)c1,3.11 µM,2.29 µM,2.14 µM,3.28 µM,1.24 µM,78.6%,88.4%,73%,67.7%,49.9%,31%,85.4%,78.3%,75.9%,62.6%,44.8%,26.9%,77.1%,75.6%,75.5%,"viability, T/C [16]: 70.6%; viability, T/C [17]: 39.5%; viability, T/C [18]: 25%; viability, T/C [19]: 79.7%; viability, T/C [20]: 81.2%; viability, T/C [21]: 75.2%; viability, T/C [22]: 68.9%; viability, T/C [23]: 50.7%; viability, T/C [24]: 25.8%; viability, T/C [25]: 75.4%; viability, T/C [26]: 76.9%; viability, T/C [27]: 64%; viability, T/C [28]: 56.1%; viability, T/C [29]: 34%; viability, T/C [30]: 27.9%"
O=C(c1cc(Cc2n[nH]c(=O)c3ccccc23)ccc1F)N1CCN(C(=O)C2CC2)CC1 + Cc1ccccc1N=Nc1ccc(NC(=O)c2ccnn2C)c(C)c1,> 10 µM,> 10 µM,> 10 µM,> 10 µM,> 10 µM,104%,96.2%,91.8%,90%,108%,94.6%,94.4%,94.4%,94.3%,90.2%,91.7%,94.2%,97%,95.2%,111%,"viability, T/C [16]: 96.1%; viability, T/C [17]: 93.8%; viability, T/C [18]: 83.3%; viability, T/C [19]: 97%; viability, T/C [20]: 87.5%; viability, T/C [21]: 91.4%; viability, T/C [22]: 90.6%; viability, T/C [23]: 101%; viability, T/C [24]: 99.3%; viability, T/C [25]: 92.4%; viability, T/C [26]: 110%; viability, T/C [27]: 106%; viability, T/C [28]: 96.8%; viability, T/C [29]: 92.7%; viability, T/C [30]: 85.4%"
